In general, IC50 refers to the concentration at which inhibition is half-maximal.

This is an account of results in patent US9586931B2 (Merck Sharp & Dohme Corp., priority 2012, dated 2017).

The target of this assay is T1, recombinant human GST-Syk (Homo sapiens, UniProt P43405).
T1 construct: purchased Carna Biosciences 08-176
Briefly: Homogeneous Time-Resolved Fluorescence (HTRF) assay for the recombinant human Syk enzyme. The class given is biochemical. As to conditions: recombinant human GST-Syk 5 pM, ATP 25 μM, 10-dose titration 10 μM to 0.508 nM; read-out: rhSYK Activity IC50. The method, then:
Syk inhibition may be determined using the following assay protocol:
Homogeneous Time-Resolved Fluorescence (HTRF) assay for the recombinant human Syk enzyme: A recombinant GST-hSyk fusion protein was used to measure potency of compounds to inhibit human Syk activity. […] Final volume of the reaction was 10 μL. Phosphorylation of the peptide was allowed to proceed for 45 minutes at room temperature. To quench the reaction and detect the phosphorylated product, 2 nM of a Europium-anti-phosphotyrosine antibody (Perkin Elmer #AD0161) and 70 nM SA-APC (Perkin-Elmer #CR130-100) were added together in 15 mM Tris pH 7.5, 40 mM EDTA, 0.01% tween 20. Final volume of the quenching solution was 10 μL. The resulting HTRF signal was measured after 30 minutes on an EnVision (Perkin-Elmer) reader using a time-resolved fluorescence protocol.
A general note: TR-FRET usually uses a lanthanide donor and a delayed reading to cut background.
For the compound `Cc1cc(Nc2cc(C(F)(F)F)ccn2)nc(-c2cn(CC3CNC(=O)O3)nn2)c1` (racemic) [Example 5.84, 5-{[4-(4-methyl-6-{[4-(trifluoromethyl)pyridin-2-yl]amino}pyridin-2-yl)-1H-1,2,3-triazol-1-yl]methyl}-1,3-oxazolidin-2-one], the half-inhibitory concentration (IC50) was 2.1 nM.

For the compound `Cc1cc(Nc2ncc(F)c(C(F)F)n2)cc(-c2cn(CC(C)(O)C(C)(C)O)nn2)c1` (stereo not shown) [Example 21.15, 1-[4-(3-{[4-(difluoromethyl)-5-fluoropyrimidin-2-yl]amino}-5-methylphenyl)-1H-1,2,3-triazol-1-yl]-2,3-dimethylbutane-2,3-diol], the IC50 worked out at 47.5 nM.

As to `Cc1cc(Nc2cc(C(F)F)ccn2)nc(-c2cn(C3CCCC(O)C3O)nn2)c1` (stereo not shown) [Example 21.37, 3-(4-(6-((4-(difluoromethyl)pyridin-2-yl)amino)-4-methylpyridin-2-yl)-1H-1,2,3-triazol-1-yl)cyclohexane-1,2-diol], the IC50 was 1.9 nM.

As for `COCC(O)Cn1cc(-c2cc(C)cc(Nc3nccc(C(F)(F)F)n3)c2)nn1` (racemic) [Example 5.53, 1-methoxy-3-[4-(3-methyl-5-{[4-(trifluoromethyl)pyrimidin-2-yl]amino}phenyl)-1H-1,2,3-triazol-1-yl]propan-2-ol], the IC50 amounted to 58.6 nM.

For the compound `Cc1cc(Nc2cc(OC3CCOC3)ccn2)nc(-c2cn(C(C)c3ccc(C(=O)O)cc3)nn2)c1` (stereo not shown) [Example 2.5, 4-{1-[4-(4-methyl-6-{[4-(tetrahydrofuran-3-yloxy)pyridin-2-yl]amino}pyridin-2-yl)-1H-1,2,3-triazol-1-yl]ethyl}benzoic acid], the half-maximal inhibitory concentration (IC50) worked out at 132 nM.

In the case of `Cc1cc(Nc2cc(C(F)(F)F)ccn2)nc(-c2cn([C@H](C)c3ccc(C(=O)O)cc3)nn2)c1` [Example 9.5, 4-{(1R)-1-[4-(4-methyl-6-{[4-(trifluoromethyl)-pyridin-2-yl]amino}pyridin-2-yl)-1H-1,2,3-triazol-1-yl]ethyl}benzoic acid], the IC50 turned out to be 8.1 nM.

On to `Cc1cc(Nc2cc(C(F)(F)F)ccn2)nc(-c2cn(CS(N)(=O)=O)nn2)c1` [Example 5.107, 1-[4-(4-methyl-6-{[4-(trifluoromethyl)pyridin-2-yl]amino}pyridin-2-yl)-1H-1,2,3-triazol-1-yl]methanesulfonamide], for which the concentration for half-maximal inhibition (IC50) is 5.1 nM.

With `Cc1cc(Nc2nccc(C(F)(F)F)n2)cc(-c2cn(C[C@@]3(O)CC[C@H](C(=O)O)C(C)(C)C3)nn2)c1` (racemic) [Example 4.1, Racemic syn-4-Hydroxy-2,2-dimethyl-4-((4-(3-methyl-5-((4-(trifluoromethyl)pyrimidin-2-yl)amino)phenyl)-1H-1,2,3-triazol-1-yl)methyl)cyclohexane carboxylic acid], the IC50 came out at 81.4 nM.

With `Cc1cc(Nc2cc(C(F)(F)F)ccn2)nc(-c2cn(C(C)C(N)=O)nn2)c1` (stereo not shown) [Example 1.25, 2-[4-(4-methyl-6-{[4-(trifluoromethyl)pyridin-2-yl]amino}pyridin-2-yl)-1H-1,2,3-triazol-1-yl]propanamide], the IC50 came out at 8.8 nM.

As to `Cc1cc(Nc2nccc(C)n2)cc(-c2cn(C3CCCCC3O)nn2)c1` (single isomer, unassigned) [Example 7.22, 2-(4-{3-methyl-5-[(4-methylpyrimidin-2-yl)amino]phenyl}-1H-1,2,3-triazol-1-yl)cyclohexanol], the IC50 turned out to be 56 nM.

Turning to `Cc1cc(Nc2cc(C(F)(F)F)ccn2)nc(-c2cn(CC(O)COCC(F)(F)F)nn2)c1` (stereo not shown) [Example 4.32, 1-[4-(4 methyl-6-{[4-(trifluoromethyl)pyridin-2-yl]amino}pyridin-2-yl)-1H-1,2,3-triazol-1-yl]-3-(2,2,2-trifluoroethoxy)propan-2-ol], the IC50 turned out to be 4.8 nM.

For `Cc1cc(Nc2nccc(C(F)F)n2)cc(-c2cn(CC3OC(=O)NC34CC4)nn2)c1` (single isomer, unassigned) [Example 7.17, 7-((4-(3-((4-(difluoromethyl)pyrimidin-2-yl)amino)-5-methylphenyl)-1H-1,2,3-triazol-1-yl)methyl)-6-oxa-4-azaspiro[2.4]heptan-5-one], the IC50 came out at 1.1 nM.

On to `Cc1cc(Nc2cc(C(F)(F)F)ccn2)nc(-c2cn(C(C)c3ccc(C(=O)O)cc3)nn2)c1` (racemic) [Example 5.41, 4-{1-[4-(4-methyl-6-{[4-(trifluoromethyl)pyridin-2-yl]amino}pyridin-2-yl)-1H-1,2,3-triazol-1-yl]ethyl}benzoic acid], for which the half-maximal inhibitory concentration (IC50) is 1.1 nM.

Regarding `Cc1cc(Nc2cc(C(F)(F)F)ccn2)nc(-c2cn(C(C)CO)nn2)c1` (stereo not shown) [Example 18.1, 2-[4-(4-Methyl-6-{[4-(trifluoromethyl)pyridin-2-yl]amino}pyridin-2-yl)-1H-1,2,3-triazol-1-yl]propan-1-ol], the 50% inhibitory concentration (IC50) turned out to be 2.2 nM.

For the compound `Cc1cc(Nc2cc(C(F)(F)F)ccn2)nc(-c2cn(CC(C)(C)O)nn2)c1` [Example 5.97, 2-methyl-1-[4-(4-methyl-6-{[4-(trifluoromethyl)pyridin-2-yl]amino}pyridin-2-yl)-1H-1,2,3-triazol-1-yl]propan-2-ol], the IC50 was determined as 15 nM.

For `Cc1cc(Nc2cc(C(F)(F)F)ccn2)nc(-c2cn(C(C)C(=O)NCc3cc4ccc(F)cc4[nH]c3=O)nn2)c1` (stereo not shown) [Example 1.43, N-[(7-fluoro-2-oxo-1,2-dihydroquinolin-3-yl)methyl]-2-[4-(4-methyl-6-{[4-(trifluoromethyl)pyridin-2-yl]amino}pyridin-2-yl)-1H-1,2,3-triazol-1-yl]propanamide], the IC50 is 64.2 nM.

As for `Cc1cc(Nc2cc(C(F)F)ccn2)nc(-c2cn(CC(C)(O)CO)nn2)c1` (stereo not shown) [Example 21.40, 3-(4-(6-((4-(difluoromethyl)pyridin-2-yl)amino)-4-methylpyridin-2-yl)-1H-1,2,3-triazol-1-yl)-2-methylpropane-1,2-diol], the half-maximal inhibitory concentration (IC50) amounted to 5.9 nM.

Consider `Cc1cc(Nc2ncc(F)c(C(F)F)n2)cc(-c2cn(CC3OC(=O)NC3C)nn2)c1` (single isomer, unassigned) [Example 7.40, 5-{[4-(3-{[4-(difluoromethyl)-5-fluoropyrimidin-2-yl]amino}-5-methylphenyl)-1H-1,2,3-triazol-1-yl]methyl}-4-methyl-1,3-oxazolidin-2-one], for which the IC50 amounted to 25.7 nM.

Turning to `Cc1cc(Nc2nccc(C(F)(F)F)n2)cc(-n2cc([C@]3(O)CC[C@H](C(=O)OC(C)(C)C)CC3)nn2)c1` [Example 15.5, tert-butyl trans-4-hydroxy-4-[1-(3-methyl-5-{[4-(trifluoromethyl)pyrimidin-2-yl]amino}phenyl)-1H-1,2,3-triazol-4-yl]cyclohexanecarboxylate], the half-inhibitory concentration (IC50) was determined as 2390 nM.

For the compound `Cc1cc(Nc2nccc(C(F)(F)F)n2)cc(-c2cn(C[C@H](O)CO)nn2)c1` [Example 5.24, (2S)-3-[4-(3-methyl-5-{[4-(trifluoromethyl)pyrimidin-2-yl]amino}phenyl)-1H-1,2,3-triazol-1-yl]propane-1,2-diol], the IC50 stood at 24.6 nM.

For the compound `Cc1cc(Nc2ncc(F)c(C(F)F)n2)cc(-c2cn(CC3CNC(=O)O3)nn2)c1` (stereo not shown) [Example 7.36, 5-{[4-(3-{[4-(difluoromethyl)-5-fluoropyrimidin-2-yl]amino}-5-methylphenyl)-1H-1,2,3-triazol-1-yl]methyl}-1,3-oxazolidin-2-one], the 50% inhibitory concentration (IC50) was 16.2 nM.

For `COC(=O)C1(n2cc(-c3cc(C)cc(Nc4cc(C(F)(F)F)ccn4)n3)nn2)CC1` [Example 8.1, Methyl 1-[4-(4-methyl-6-{[4-(trifluoromethyl)pyridin-2-yl]amino}pyridin-2-yl)-1H-1,2,3-triazol-1-yl]cyclopropanecarboxylate], the concentration for half-maximal inhibition (IC50) is 14.9 nM.

Turning to `Cc1cc(Nc2nccc(C(F)F)n2)cc(-c2cn(C(C)C(C)(O)CO)nn2)c1` (single isomer, unassigned) [Example 30.3, 3-(4-(3-((4-(Difluoromethyl)pyrimidin-2-yl)amino)-5-methylphenyl)-1H-1,2,3-triazol-1-yl)-2-methylbutane-1,2-diol], the IC50 came to 8 nM.

Take `Cc1cc(Nc2cc(C(F)(F)F)ccn2)nc(-c2cn(CC(C)(O)CO)nn2)c1` (stereo not shown) [Example 10.16, 2-methyl-3-[4-(4-methyl-6-{[4-(trifluoromethyl)pyridin-2-yl]amino}pyridin-2-yl)-1H-1,2,3-triazol-1-yl]propane-1,2-diol]: the 50% inhibitory concentration (IC50) stood at 6.1 nM.

For the compound `Cc1cc(Nc2cc(C(F)(F)F)ccn2)nc(-c2c[nH]nn2)c1` [Example 5.101, 4-methyl-6-(1H-1,2,3-triazol-4-yl)-N-[4-(trifluoromethyl)pyridin-2-yl]pyridin-2-amine], the IC50 was 25.2 nM.

On to `COc1nc(Nc2cc(C)cc(-c3cn(CC(C)(O)C(C)(C)O)nn3)c2)ncc1Cl` (stereo not shown) [Example 21.16, 1-(4-{3-[(5-chloro-4-methoxypyrimidin-2-yl)amino]-5-methylphenyl}-1H-1,2,3-triazol-1-yl)-2,3-dimethylbutane-2,3-diol], for which the IC50 is 50.6 nM.

Take `Cc1cc(Nc2cc(C(F)(F)F)ccn2)nc(-c2cn(C[C@@H]3CNC(=O)O3)nn2)c1` [Example 5.103, (5S)-5-{[4-(4-methyl-6-{[4-(trifluoromethyl)pyridin-2-yl]amino}pyridin-2-yl)-1H-1,2,3-triazol-1-yl]methyl}-1,3-oxazolidin-2-one]: the IC50 stood at 1.9 nM.

For the compound `Cc1cc(Nc2cc(C(F)(F)F)ccn2)nc(-c2cn(C[C@H]3CNC(=O)O3)nn2)c1` [Example 5.102, (5R)-5-{[4-(4-methyl-6-{[4-(trifluoromethyl)pyridin-2-yl]amino}pyridin-2-yl)-1H-1,2,3-triazol-1-yl]methyl}-1,3-oxazolidin-2-one], the IC50 amounted to 1.1 nM.
